# Tested on: six prioritized vascular targets (VEGFR2, TIE2, CCL2, PAI-1, CXCL10, uPAR)
# Assay: Vascular bioactivity score (VBS): weighted sum of activity across 23 ToxCast assays
# Parameters: species or system human
# Details: pVDCs with rabbit-specific effects
row,Compound,VBS
1,CCCCOCN(C(=O)CCl)c1c(CC)cccc1CC [Butachlor],1.99
2,COP(=O)(OC)O/C(C)=C/C(=O)N(C)C [Dicrotophos],1.59
3,CN1CSC(=S)N(C)C1 [Dazomet],2.61

# Same assay, conditions: pVDCs with rat-specific effects
row,Compound,VBS
1,CO/N=C(/C1=NOCCO1)c1ccccc1Oc1ncnc(Oc2ccccc2Cl)c1F [Fluoxastrobin],2.79
2,CCCSP(=O)(OCC)Oc1ccc(Br)cc1Cl (stereo not drawn) [Profenofos],1.71
3,CCOC(=O)C(C)OC(=O)c1cc(Oc2ccc(C(F)(F)F)cc2Cl)ccc1[N+](=O)[O-] (stereo not drawn) [Lactofen],3.18
4,C[C@@H]1[C@@H](c2ccc(Cl)cc2)SC(=O)N1C(=O)NC1CCCCC1 [Hexythiazox],2.78
5,Cc1ccc(-c2c(Cl)nc(C#N)n2S(=O)(=O)N(C)C)cc1 [Cyazofamid],3.34
6,"Cc1nn(C)c(Oc2ccccc2)c1/C=N/OCc1ccc(C(=O)OC(C)(C)C)cc1 [(Z,E)-Fenpyroximate]",3.88
7,CCc1cccc(CC)c1N(COC)C(=O)CCl [Alachlor],2.97
8,Diniconazole,4.57
9,CC1(C)C(C(=O)OC(C#N)c2cccc(Oc3ccccc3)c2)C1(C)C (stereo not drawn) [Fenpropathrin],2.18
10,CS/C(C)=N\OC(=O)N(C)SN(C)C(=O)O/N=C(\C)SC [Thiodicarb],2.97
11,CCC(C)(C)C(=O)OC1=C(c2ccc(Cl)cc2Cl)C(=O)OC12CCCCC2 [Spirodiclofen],3.15
12,N#Cc1c[nH]cc1-c1cccc2c1OC(F)(F)O2 [Fludioxonil],1.82
13,C#CCC1=C(C)C(OC(=O)C2C(C=C(C)C)C2(C)C)CC1=O (stereo not drawn) [Prallethrin],2.11
14,N#Cc1c(Cl)c(Cl)c(Cl)c(C#N)c1Cl [Chlorothalonil],3.28
15,COP(=O)(OC)OC(Br)C(Cl)(Cl)Br (stereo not drawn) [Naled],4.22
16,COC(=O)c1c(C(F)F)nc(C(F)(F)F)c(C2=NCCS2)c1CC(C)C [Thiazopyr],2.00
17,CCCN(CCC)c1c([N+](=O)[O-])cc(C(F)(F)F)c(N)c1[N+](=O)[O-] [Prodiamine],2.19
18,FC(F)C(F)(F)OCC(Cn1cncn1)c1ccc(Cl)cc1Cl (stereo not drawn) [Tetraconazole],2.23
19,CCc1cccc(C)c1N(C(=O)CCl)C(C)COC (stereo not drawn) [Metolachlor],1.57
20,CCOCN(C(=O)CCl)c1c(C)cccc1CC [Acetochlor],2.16

# Same assay, conditions: ranking of 309 phase I chemicals; mean cutoff for pVDC
row,Compound,VBS
1,CC(C)(C)c1ccc(CSc2cnn(C(C)(C)C)c(=O)c2Cl)cc1 [pyridaben],6.9
2,CC1(C)C(C=C(Cl)Cl)C1C(=O)OC(C#N)c1ccc(F)c(Oc2ccccc2)c1 (stereo not drawn) [cyfluthrin],1.48

# Tested on: pregnant rats
# Assay: not given
# Details: rat, in vivo; cited from earlier work
row,Compound,Developmental phenotype
1,CC1(C)C(C(=O)OC(C#N)c2cccc(Oc3ccccc3)c2)C1(C)C (stereo not drawn) [Fenpropathrin],Maternal pregnancy loss
2,FC(F)C(F)(F)OCC(Cn1cncn1)c1ccc(Cl)cc1Cl (stereo not drawn) [Tetraconazole],urogenital end points

# Same assay, conditions: rat-specific effects in ToxRefDB prenatal studies; ref U.S. EPA 2010b; cited from earlier work
row,Compound,Developmental phenotype
1,CO/N=C(/C1=NOCCO1)c1ccccc1Oc1ncnc(Oc2ccccc2Cl)c1F [Fluoxastrobin],Skeletal: appendicular
2,CCCSP(=O)(OCC)Oc1ccc(Br)cc1Cl (stereo not drawn) [Profenofos],Maternal pregnancy loss
3,CCOC(=O)C(C)OC(=O)c1cc(Oc2ccc(C(F)(F)F)cc2Cl)ccc1[N+](=O)[O-] (stereo not drawn) [Lactofen],Fetal weight reduction; maternal pregnancy loss; skeletal: appendicular; skeletal: axial
4,C[C@@H]1[C@@H](c2ccc(Cl)cc2)SC(=O)N1C(=O)NC1CCCCC1 [Hexythiazox],Skeletal: appendicular
5,Cc1ccc(-c2c(Cl)nc(C#N)n2S(=O)(=O)N(C)C)cc1 [Cyazofamid],Skeletal: axial
6,"Cc1nn(C)c(Oc2ccccc2)c1/C=N/OCc1ccc(C(=O)OC(C)(C)C)cc1 [(Z,E)-Fenpyroximate]",Skeletal: axial
7,CCc1cccc(CC)c1N(COC)C(=O)CCl [Alachlor],Fetal weight reduction; embryo fetal loss
8,CS/C(C)=N\OC(=O)N(C)SN(C)C(=O)O/N=C(\C)SC [Thiodicarb],"Fetal weight reduction, general fetal pathology; embryo fetal loss; maternal pregnancy loss; skeletal: axial"
9,CCC(C)(C)C(=O)OC1=C(c2ccc(Cl)cc2Cl)C(=O)OC12CCCCC2 [Spirodiclofen],Urogenital: renal
10,N#Cc1c[nH]cc1-c1cccc2c1OC(F)(F)O2 [Fludioxonil],"Urogenital: renal, ureteric"
11,C#CCC1=C(C)C(OC(=O)C2C(C=C(C)C)C2(C)C)CC1=O (stereo not drawn) [Prallethrin],Maternal pregnancy loss
12,N#Cc1c(Cl)c(Cl)c(Cl)c(C#N)c1Cl [Chlorothalonil],Embryo fetal loss; maternal pregnancy loss
13,COP(=O)(OC)OC(Br)C(Cl)(Cl)Br (stereo not drawn) [Naled],Embryo fetal loss; trunk: body wall
14,CCCN(CCC)c1c([N+](=O)[O-])cc(C(F)(F)F)c(N)c1[N+](=O)[O-] [Prodiamine],Neurosensory: eye
15,FC(F)C(F)(F)OCC(Cn1cncn1)c1ccc(Cl)cc1Cl (stereo not drawn) [Tetraconazole],"General fetal pathology; skeletal: axial; urogenital: renal, ureteric"
16,CCc1cccc(C)c1N(C(=O)CCl)C(C)COC (stereo not drawn) [Metolachlor],Fetal weight reduction; embryo fetal loss; maternal pregnancy loss

# Same assay, conditions: rat-specific effects in ToxRefDB prenatal studies; ref U.S. EPA 2010b; listed as fludioxonil; cited from earlier work
row,Compound,Developmental phenotype
1,N#Cc1c[nH]cc1-c1cccc2c1OC(F)(F)O2 [Fludioxonil],urogenital end points

# Same assay, conditions: rat-specific effects in ToxRefDB prenatal studies; ref U.S. EPA 2010b; listed as spirodiclofen; cited from earlier work
row,Compound,Developmental phenotype
1,CCC(C)(C)C(=O)OC1=C(c2ccc(Cl)cc2Cl)C(=O)OC12CCCCC2 [Spirodiclofen],urogenital end points

# From publication PMC3226499, “Environmental Impact on Vascular Development Predicted by High-Throughput Screening” (Environmental Health Perspectives, 2011)
